Results on one compound are retold here after US20110295187A1 (Erchonia Corporation, priority 2004, published 2011).

In the experiment the test system is pads of fat near the waist ("love handles"). The following applies: patient; niacin 500 mg rising to 1500 mg/day orally by tablet over 14 days; 635 nm diode laser, max 10 mW, 30 min scanning sessions.

Take `O=C(O)c1cccnc1` [niacin, nicotinic acid]: the “Fat reduction: love handles after treatment” value is listed as “reduced”.
